# Laboratory results from ChEMBL document CHEMBL1201862, “PubChem BioAssay data set” (2004).
# Structures can show the parent of a compound that is named as a salt.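 1) Cells in 96-well plates. 2) Compound, 48 h, 5 concentrations. 3) Linear interpolation between surrounding doses. 4) Unreached endpoint = highest concentration. GI50 marks 50% less growth.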 The source made the active and inactive calls. Rule as the data show it: active = GI50 up to about 1.1 µM and inactive = higher.
# Assays:
# Experiment in all cases: inhibition of tumour cell growth, NCI panel, 48 h
# [1] = tested on: 786-0
# [2] = tested on: A549
# [3] = tested on: ACHN
# [4] = tested on: CAKI-1
# [5] = tested on: CCRF-CEM
# [6] = tested on: COLO 205
# [7] = tested on: DLD-1
# [8] = tested on: DMS-114
# [9] = tested on: DMS-273
# [10] = tested on: EKVX
# [11] = tested on: HCC 2998
# [12] = tested on: HCT-116
# [13] = tested on: HCT-15
# [14] = tested on: HL-60
# [15] = tested on: HOP-18
# [16] = tested on: HOP-62
# [17] = tested on: HOP-92
# [18] = tested on: HT-29
# [19] = tested on: IGROV-1
# [20] = tested on: K562
# [21] = tested on: KM-20L2
# [22] = tested on: KM12
# [23] = tested on: LOX IMVI
# [24] = tested on: LXFL 529
# [25] = tested on: M14
# [26] = tested on: M19-MEL
# [27] = tested on: MOLT-4
# [28] = tested on: Malme-3M
# [29] = tested on: NCI-H226
# [30] = tested on: NCI-H23
# [31] = tested on: NCI-H460
# [32] = tested on: NCI-H522
# [33] = tested on: OVCAR-3
# [34] = tested on: OVCAR-4
# [35] = tested on: OVCAR-5
# [36] = tested on: OVCAR-8
# [37] = tested on: RPMI-8226
# [38] = tested on: RXF 393
# [39] = tested on: RXF 631
# [40] = tested on: SF-295
# [41] = tested on: SF-539
# [42] = tested on: SK-MEL-28
# [43] = tested on: SK-MEL-2
# [44] = tested on: SK-MEL-5
# [45] = tested on: SK-OV-3
# [46] = tested on: SN12C
# [47] = tested on: SNB-19
# [48] = tested on: SNB-75
# [49] = tested on: SNB-78
# [50] = tested on: SR
# [51] = tested on: SW-620
# [52] = tested on: TK-10
# [53] = tested on: U-251
# [54] = tested on: UACC-257
# [55] = tested on: UACC-62
# [56] = tested on: UO-31
# [57] = tested on: XF498
# [58] = tested on: A498
# [59] = tested on: Hs-578T
# [60] = tested on: MCF7
# [61] = tested on: MDA-MB-231
# [62] = tested on: MDA-MB-435
# [63] = tested on: NCI/ADR-RES
# [64] = tested on: PC-3
# [65] = tested on: SF-268
# [66] = tested on: T47D
structure (smiles),measurement,setting,value
COc1ccc2c(c1OC)C(=O)c1cnccc1C2=O,GI50,[1],> 100 µM (inactive)
same,GI50,[2],> 100 µM (inactive)
same,GI50,[3],> 100 µM (inactive)
same,GI50,[4],> 100 µM (inactive)
same,GI50,[5],> 100 µM (inactive)
same,GI50,[6],> 100 µM (inactive)
same,GI50,[7],> 100 µM (inactive)
same,GI50,[8],> 100 µM (inactive)
same,GI50,[9],> 100 µM (inactive)
same,GI50,[10],> 100 µM (inactive)
same,GI50,[11],> 100 µM (inactive)
same,GI50,[12],> 100 µM (inactive)
same,GI50,[13],> 100 µM
same,GI50,[14],> 100 µM (inactive)
same,GI50,[15],> 100 µM (inactive)
same,GI50,[16],> 100 µM (inactive)
same,GI50,[17],> 100 µM (inactive)
same,GI50,[18],> 100 µM (inactive)
same,GI50,[19],> 100 µM (inactive)
same,GI50,[20],> 100 µM (inactive)
same,GI50,[21],> 100 µM (inactive)
same,GI50,[22],> 100 µM (inactive)
same,GI50,[23],> 100 µM (inactive)
same,GI50,[24],> 100 µM (inactive)
same,GI50,[25],> 100 µM (inactive)
same,GI50,[26],> 100 µM (inactive)
same,GI50,[27],> 100 µM (inactive)
same,GI50,[28],> 100 µM (inactive)
same,GI50,[29],> 100 µM (inactive)
same,GI50,[30],> 100 µM (inactive)
same,GI50,[31],> 100 µM (inactive)
same,GI50,[32],> 100 µM (inactive)
same,GI50,[33],> 100 µM (inactive)
same,GI50,[34],> 100 µM (inactive)
same,GI50,[35],> 100 µM (inactive)
same,GI50,[36],> 100 µM (inactive)
same,GI50,[37],> 100 µM (inactive)
same,GI50,[38],24.9 µM (inactive)
same,GI50,[39],> 100 µM (inactive)
same,GI50,[40],> 100 µM (inactive)
same,GI50,[41],> 100 µM (inactive)
same,GI50,[42],> 100 µM (inactive)
same,GI50,[43],> 100 µM (inactive)
same,GI50,[44],> 100 µM (inactive)
same,GI50,[45],> 100 µM (inactive)
same,GI50,[46],> 100 µM (inactive)
same,GI50,[47],> 100 µM (inactive)
same,GI50,[48],> 100 µM (inactive)
same,GI50,[49],> 100 µM (inactive)
same,GI50,[50],> 100 µM (inactive)
same,GI50,[51],> 100 µM (inactive)
same,GI50,[52],> 100 µM (inactive)
same,GI50,[53],> 100 µM (inactive)
same,GI50,[54],> 100 µM (inactive)
same,GI50,[55],> 100 µM (inactive)
same,GI50,[56],> 100 µM (inactive)
same,GI50,[57],> 100 µM (inactive)
CC[C@@]1(O)C(=O)OCc2c1cc1n(c2=O)Cc2cc3c(CN(C)C)c(O)ccc3nc2-1 [TOPOTECAN HYDROCHLORIDE],GI50,[58],0.11 µM (active)
same,GI50,[2],0.0475 µM (active)
same,GI50,[3],0.0237 µM (active)
same,GI50,[4],0.015 µM (active)
same,GI50,[5],0.0125 µM (active)
same,GI50,[6],0.293 µM (active)
same,GI50,[8],0.0187 µM (active)
same,GI50,[9],0.0191 µM (active)
same,GI50,[10],0.333 µM (active)
same,GI50,[12],0.0408 µM (active)
same,GI50,[13],0.395 µM
same,GI50,[14],0.0268 µM (active)
same,GI50,[15],0.254 µM (active)
same,GI50,[16],0.0125 µM (active)
same,GI50,[17],0.0318 µM (active)
same,GI50,[18],0.132 µM (active)
same,GI50,[59],1.1 µM (active)
same,GI50,[19],0.141 µM (active)
same,GI50,[20],0.0592 µM (active)
same,GI50,[21],0.146 µM (active)
same,GI50,[22],0.518 µM (active)
same,GI50,[24],2.29 µM (inactive)
same,GI50,[26],0.0649 µM (active)
same,GI50,[60],0.0149 µM (active)
same,GI50,[61],2.25 µM (inactive)
same,GI50,[62],0.159 µM (active)
same,GI50,[27],0.0125 µM (active)
same,GI50,[28],0.188 µM (active)
same,GI50,[29],0.0225 µM (active)
same,GI50,[30],0.0217 µM (active)
same,GI50,[31],0.0163 µM (active)
same,GI50,[32],0.0306 µM (active)
same,GI50,[63],0.193 µM (active)
same,GI50,[33],0.24 µM (active)
same,GI50,[34],0.412 µM (active)
same,GI50,[35],0.121 µM (active)
same,GI50,[64],0.0771 µM (active)
same,GI50,[37],0.276 µM (active)
same,GI50,[38],0.0395 µM (active)
same,GI50,[39],0.375 µM (active)
same,GI50,[65],0.0147 µM (active)
same,GI50,[40],0.0148 µM (active)
same,GI50,[41],0.0168 µM (active)
same,GI50,[42],0.239 µM (active)
same,GI50,[44],0.0325 µM (active)
same,GI50,[46],0.0214 µM (active)
same,GI50,[47],0.0179 µM (active)
same,GI50,[48],0.0215 µM (active)
same,GI50,[49],4.71 µM (inactive)
same,GI50,[66],0.00571 µM (active)
same,GI50,[54],0.0834 µM (active)
same,GI50,[57],0.0387 µM (active)
